Source: the Bradley open melting point set (2014)
Where “and” joins values, the source holds several entries; their conditions need not be identical. Equal entries are not always repeated.

Compound | melting point
COc1ccc(C(C)C)cc1B(O)O [5-isopropyl-2-methoxybenzeneboronic acid] | 86 °C
CC(C)C1C(=O)NC(=O)NC1=O [5-isopropylbarbituric acid] | 215 °C
COc1ccc2[nH]c(C)cc2c1 [5-methoxy-2-methylindole] | 87 °C
Cc1[nH]cnc1C=O [5-methylimidazole-4-carboxaldehyde] | 168 °C
Cc1cc(C(=O)O)no1 [5-methylisoxazole-3-carboxylic acid] | 172 °C
Cc1ccc(O)c(C(=O)O)c1 [5-methylsalicylic acid] | 153 °C
O=C(O)c1ccc([N+](=O)[O-])o1 [5-nitro-2-furoic acid] | 187 °C
COc1cc(C=O)cc([N+](=O)[O-])c1O [5-nitrovanillin] | 176 °C
CC(C)CCC[C@@H](C)[C@H]1CC[C@H]2[C@@H]3CC[C@H]4CC(=O)CC[C@]4(C)[C@H]3CC[C@]12C [5alpha-cholestan-3-one] | 130 °C
Nc1ccc2cc(O)ccc2c1 [6-Amino-2-naphthalenol] | 185 °C
CCCc1cc(O)nc(S)n1 [6-Propyl-2-sulfanylpyrimidin-4-ol] | 220 °C
NCCCCCCO [6-amino-1-hexanol] | 57 °C
Cc1nc(N)ccc1Br [6-amino-3-bromo-2-methylpyridine] | 81 °C
Cc1nc(N)ccc1C#N [6-amino-3-cyano-2-methylpyridine] | 165 °C
OB(O)c1ccc(OCc2ccccc2)nc1 [6-benzyloxypyridine-3-boronic acid] | 109 °C
Cc1cc(Br)ncc1B(O)O [6-bromo-4-methylpyridine-3-boronic acid] | 164 °C
COc1cc(Cl)nc(OC)n1 [6-chloro-2,4-dimethoxypyrimidine] | 72 °C
Cc1cc(B(O)O)cnc1Cl [6-chloro-5-methylpyridine-3-boronic acid] | 182 °C

Compound | melting point
O=C(O)c1ccc2cc(O)ccc2c1 [6-hydroxy-2-naphthoic acid] | 249 °C
COc1ccc2c(c1)C(=O)CC2 [6-methoxy-1-indanone] | 103 °C
CC(=O)OC1CCC2(C)C(CC(=O)C3C4CCC(=O)C4(C)CCC32)C1 (centres undefined) [7,17-dioxoandrostan-3-yl acetate] | 165 °C
O=C1c2ccccc2C(=O)c2ccccc21 [9,10-anthraquinone] | 285 °C
Cc1c2ccccc2cc2ccccc12 [9-Methylanthracene] | 78 °C
O=C(Cl)OCC1c2ccccc2-c2ccccc21 [9-fluorenylmethyl chloroformate] | 62 °C
O=C(O)CCCCCCCCCCCCCCCO [16-hydroxyhexadecanoic acid] | 99 °C
CCCOC1CCC2C3CCC4=CC(=O)CCC4(C)C3CCC12C (centres undefined) [17-propoxyandrost-4-en-3-one] | 118 °C
C[C@]12CCC(=O)C=C1CC[C@@H]1[C@@H]2CC[C@@]2(C)[C@H]1CC[C@]2(C)O [17a-Methyltestosterone] | 163 °C
Cl[C@H]1[C@H](Cl)[C@@H](Cl)[C@H](Cl)[C@H](Cl)[C@H]1Cl [(1R,2R,3R,4R,5S,6S)-1,2,3,4,5,6-Hexachlorocyclohexane] | 159 °C
O=C(O)COc1ccc(Cl)cc1Cl [(2,4-Dichlorophenoxy)acetic acid] | 138 °C
O=C/C=C/c1ccccc1 [(2E)-3-Phenylacrylaldehyde] | -7 °C
C/C=C/C=O [(2E)-But-2-enal] | -76 °C
CN1CC[C@@H](c2ccc(F)cc2)[C@H](CO)C1 [(3S,4R)-4-(4-fluorophenyl)-1-methyl-3-piperidinemethanol] | 96 °C
C[C@]12CC[C@H](O)[C@@H](O)[C@H]1CC[C@@H]1[C@@H]2CC[C@]2(C)C(=O)CC[C@@H]12 [(3beta,4alpha,5beta)-3,4-Dihydroxyandrostan-17-one] | 221 °C
C[C@]12CC[C@@H]3O[C@@H]3[C@H]1CC[C@@H]1[C@@H]2CC[C@]2(C)C(=O)CC[C@@H]12 [(3beta,4beta,5beta)-3,4-Epoxyandrostan-17-one] | 136 °C
C[C@]12CCC(=O)C[C@H]1CC[C@@H]1[C@@H]2CC[C@]2(C)C(=O)CC[C@@H]12 [(5beta)-Androstane-3,17-dione] | 147 °C

Now from value to compound:

melting point | Compound
79 °C | COc1ccc2c(c1)CCCC2=O [6-methoxy-1-tetralone]
51 °C | COc1ccc(C=O)cn1 [6-methoxypyridine-3-carboxaldehyde]
31 °C | Cc1cccc(C=O)n1 [6-methylpyridine-2-carboxaldehyde]
188 °C | O=c1ccc2cc([N+](=O)[O-])ccc2o1 [6-nitrocoumarin]
130 °C | C1=CC2=CC=C3C=CC=CC4=C3CC2=C(C=C1)C=C4 [6H-5,7-ethenocyclohepta[b]heptalene]
66 °C | FC(F)(F)c1ccc2cccnc2c1 [7-(trifluoromethyl)quinoline]
98 °C | Clc1cccc2c1=NC(c1ccccc1)C=2c1ccccc1 (centres undefined) [7-chloro-2,3-diphenyl-1H-indole]
144 °C | NS(=O)(=O)c1ccc(F)c2nonc12 [7-fluorobenzofurazan-4-sulfonamide]
110 °C | COc1ccc2c(=O)cc(-c3ccccc3)oc2c1 [7-methoxyflavone]
81 °C | Cc1ccc(O)c2c1CCC2 [7-methyl-4-indanol]
180 °C | O=[N+]([O-])c1ccc(O)c2ncccc12 [8-hydroxy-5-nitroquinoline]
109 °C | c1ccc2c(c1)Cc1ccccc1C2 [9,10-Dihydroanthracene]
249 °C | c1ccc(-c2c3ccccc3c(-c3ccccc3)c3ccccc23)cc1 [9,10-Diphenylanthracene]
251 °C | c1ccc(-c2c3ccccc3c(-c3ccccc3)c3ccccc23)cc1 [9,10-diphenylanthracene]
84 °C | O=C1c2ccccc2-c2ccccc21 [9-fluorenone]
83 °C | O=C1c2ccccc2-c2ccccc21 [9H-Fluoren-9-one]
116 °C | c1ccc2c(c1)Cc1ccccc1-2 [9H-Fluorene]
209 °C | O=c1c2ccccc2sc2ccccc12 [9H-Thioxanthen-9-one]
36 °C | OCCCCCCCCCCc1ccccc1 [10-phenyl-1-decanol]
108 °C | CC(CCC(=O)O)C1CCC2C3CCC4CC(=O)CCC4(C)C3CC(O)C12C (centres undefined) [12-hydroxy-3-oxocholan-24-oic acid]
78 °C | CCCCCCCCCCCCCC(=O)CCCCCCCCCCCCC [14-heptacosanone]
86 °C | O=C(O)CCCCCCCCCCCCCCO [15-hydroxypentadecanoic acid]
135 °C | CC(=O)OC1CCC2(C)C(CCC3C2CCC2(C)C3CCC2(C)CCc2ccccc2)C1 (centres undefined) [17-methyl-21-phenylpregnan-3-yl acetate]
72 °C | C=C(C)C1CC=C(C)/C(=N/O)C1 (centres undefined) [(1E)-5-Isopropenyl-2-methyl-2-cyclohexen-1-one oxime]
129 °C | O/N=C(\Cc1ccccc1)c1ccc2ccccc2c1 [(1E)-N-hydroxy-1-(naphthalen-2-yl)-2-phenylethanimine]

melting point | Compound
244 °C and 245 °C | O=C(/C=C/c1ccc2ccccc2c1)/C=C/c1ccc2ccccc2c1 [(1E,4E)-1,5-Di(2-naphthyl)-1,4-pentadien-3-one]
66 °C | CC1(C)[C@H]2CC[C@]1(CS(=O)(=O)Cl)C(=O)C2 [(1R)-camphor-10-sulfonyl chloride]
178 °C | CC1(C)[C@@H]2CC[C@@]1(C)C(=O)C2 [(1R)-camphor]
200 °C | CC1(C)[C@@H]2CC[C@@]1(C)C(=O)C2=O [(1R)-camphorquinone]
186 °C | CC1(C)[C@@H](C(=O)O)CC[C@@]1(C)C(=O)O [(1R,3S)-camphoric acid]
178 °C | CC1(C)[C@H]2CC[C@]1(C)C(=O)C2 [(1S)-camphor]
-53 °C | C1=C\CCCC\C=C/1 [(1Z,3Z)-Cycloocta-1,3-diene]
84 °C | N#CCc1ccccc1[N+](=O)[O-] [(2-Nitrophenyl)acetonitrile]
113 °C | Nc1cc(Br)ccc1C(O)c1ccccc1 (centres undefined) [(2-amino-4-bromophenyl)(phenyl)methanol]
188 °C | O=C(/C=C/c1ccccc1[N+](=O)[O-])c1cccc(O)c1 [(2E)-1-(3-Hydroxyphenyl)-3-(2-nitrophenyl)-2-propen-1-one]
80 °C | O=C(/C=C/c1ccc(-c2ccccc2)o1)c1ccccc1 [(2E)-1-phenyl-3-(5-phenyl-2-furyl)prop-2-en-1-one]
106 °C | N#C/C(=C\c1ccccc1)c1nc2ccccc2s1 [(2E)-2-(1,3-Benzothiazol-2-yl)-3-phenylacrylonitrile]
142 °C | O=C(O)/C=C/c1cccc2c(Br)ccc([N+](=O)[O-])c12 [(2E)-3-(5-bromo-8-nitronaphthalen-1-yl)prop-2-enoic acid]
161 °C | O=C(O)/C(=C/c1cccc2ccccc12)c1ccccc1 [(2E)-3-naphthalen-1-yl-2-phenylprop-2-enoic acid]
-140 °C | C/C=C/CC [(2E)-Pent-2-ene]
27.5 °C | OC[C@@H](O)COCc1ccccc1 [(2R)-3-(Benzyloxy)propane-1,2-diol]
33 °C | C[C@H](O)[C@@H](C)O [(2R,3S)-Butane-2,3-diol]
22.5 °C and 25 °C | C[C@H](O)CN [(2S)-1-amino-2-propanol]
68 °C | CO/C(C)=C(\C#N)c1ccccc1[N+](=O)[O-] [(2Z)-3-methoxy-2-(2-nitrophenyl)but-2-enenitrile]
238 °C | CC(=N/O)/C(C)=N\O [(2Z,3Z)-N,N'-Dihydroxybutane-2,3-diimine]
98 °C | COc1ccc(CC(=O)O)cc1OC [(3,4-Dimethoxyphenyl)acetic acid]
10 °C | OCc1cccc(Oc2ccccc2)c1 [(3-Phenoxyphenyl)methanol]
53 °C | COc1ccc(/C(C)=C/C(C)=O)cc1 [(3E)-4-(4-methoxyphenyl)pent-3-en-2-one]
152 °C | [O-][P+](c1ccccc1)(c1ccccc1)C1C=C(c2ccccc2)C=C(c2ccccc2)O1 (centres undefined) [(4,6-diphenyl-2H-pyran-2-yl)(diphenyl)phosphane oxide]
